Data taken from ChEMBL document CHEMBL4665541, “Search for new therapeutic options for the uncommon pathogen Mycobacterium chimaera: an open drug discovery approach” (Lancet Microbe, 2021).

What was measured:
Assay type in all cases: functional, organism-based
Design in all cases: conc 20 uM
[1] = test system: Mycobacterium tuberculosis; test: (§1) Inhibition of mycobacterial growth using the resazurin microtitre cell viability assay (REMA), compounds at final concentration of 20 µM (2% v/v DMSO). Hits were classed as compounds that inhibited bacterial growth by 70% or more compared to drug-free controls.; details: H37Rv
[2] = test system: Mycobacterium intracellulare subsp. chimaera; test: as §1; details: NCTC13781
[3] = test system: Mycobacteroides abscessus; test: as §1; details: ATCC19977

Row | Substance | Survival [1] [%] | Survival [2] [%] | Survival [3] [%]
1 | MMV032995 | 89.1 | 98.4 | 111
2 | MMV045105 | 107 | 102 | 113
3 | MMV047015 | 52.2 | 85.3 | 111
4 | MMV053220 | 90.6 | 97.9 | 115
5 | MMV054312 | 46.8 | 76.8 | 111
6 | MMV062221 | 103 | 112 | 114
7 | MMV063404 | 33.5 | 90.4 | 108
8 | MMV069458 | 11.9 | 94.1 | 102
9 | MMV084603 | 98.8 | 81.6 | 112
10 | MMV084864 | 84.2 | 100 | 101
11 | MMV085071 | 93.5 | 86.4 | 110
12 | MMV085210 | 82.8 | 88.2 | 115
13 | MMV085230 | 93.7 | 111 | 118
14 | MMV085499 | 90.8 | 112 | 106
15 | MMV090930 | 38.6 | 84.6 | 110
16 | MMV099637 | 109 | 95.3 | 98.4
17 | MMV102872 | 18.3 | 97.7 | 114
18 | MMV146306 | 96.1 | 96.2 | 107
19 | MMV153413 | 26.5 | 9.37 | 111
20 | MMV161996 | 119 | 108 | 103
21 | MMV188296 | 95 | 98 | 109
22 | MMV200748 | 103 | 100 | 108

Row | Substance | Survival [1] [%] | Survival [2] [%] | Survival [3] [%]
23 | MMV202458 | 132 | 98.1 | 99.9
24 | MMV202553 | 83.4 | 100 | 109
25 | MMV228911 | 114 | 89.5 | 97.2
26 | MMV272144 | 85.8 | 105 | 110
27 | MMV392832 | 75.4 | 93.8 | 106
28 | MMV393144 | 92.6 | 85.6 | 103
29 | MMV393995 | 46.2 | 95.8 | 93.9
30 | MMV407539 | 85.3 | 98.9 | 103
31 | MMV407834 | 97 | 114 | 113
32 | MMV461553 | 42.2 | 7.21 | 103
33 | MMV495543 | 85.3 | 86.9 | 84.2
34 | MMV553002 | 34.8 | 66.4 | 113
35 | MMV560185 | 80.8 | 89.9 | 116
36 | MMV595321 | 25.4 | 98.2 | 117
37 | MMV611037 | 92.7 | 105 | 106
38 | MMV634140 | 81 | 84 | 110
39 | MMV637229 | 87 | 96.4 | 112
40 | MMV637953 | 102 | 117 | 145
41 | MMV652003 | 112 | 97.2 | 109
42 | MMV658988 | 4.93 | 74.9 | 101
43 | MMV658993 | 83.9 | 100 | 101
44 | MMV659004 | 6.84 | 100 | 112

Row | Substance | Survival [1] [%] | Survival [2] [%] | Survival [3] [%]
45 | MMV659010 | 85.6 | 91.7 | 112
46 | MMV661713 | 25.2 | 47.5 | 112
47 | MMV663250 | 95.4 | 116 | 104
48 | MMV667494 | 84.1 | 95.7 | 110
49 | MMV668727 | 100 | 96.8 | 102
50 | MMV671636 | 95.9 | 85.9 | 112
51 | MMV675968 | 15 | 1.74 | 87.6
52 | MMV675969 | 95.8 | 107 | 93.7
53 | MMV675993 | 92.9 | 109 | 102
54 | MMV675994 | 81.9 | 108 | 105
55 | MMV675995 | 90.8 | 97.4 | 111
56 | MMV675996 | 102 | 94.3 | 94.2
57 | MMV675997 | 99.4 | 98.5 | 105
58 | MMV675998 | 89.7 | 94.7 | 117
59 | MMV676008 | 99.7 | 116 | 123
60 | MMV676048 | 90.5 | 94.4 | 114
61 | MMV676050 | 84.8 | 95.8 | 110
62 | MMV676053 | 89.4 | 105 | 97.1
63 | MMV676057 | 109 | 110 | 109
64 | MMV676063 | 91 | 112 | 105
65 | MMV676064 | 96.8 | 102 | 117
66 | MMV676159 | 99.4 | 100 | 106

Row | Substance | Survival [1] [%] | Survival [2] [%] | Survival [3] [%]
67 | MMV676161 | 80.2 | 103 | 114
68 | MMV676162 | 93.3 | 112 | 117
69 | MMV676182 | 91.4 | 104 | 102
70 | MMV676186 | 94.5 | 98.8 | 105
71 | MMV676191 | 100 | 105 | 99.5
72 | MMV676204 | 99.7 | 101 | 107
73 | MMV676260 | 84.8 | 97.1 | 108
74 | MMV676269 | 88.8 | 104 | 111
75 | MMV676270 | 82.7 | 102 | 108
76 | MMV676350 | 94.9 | 105 | 116
77 | MMV676358 | 98.4 | 92.3 | 114
78 | MMV676377 | 50.2 | 77.7 | 108
79 | MMV676379 | 98 | 87.9 | 116
80 | MMV676380 | 97 | 86.9 | 102
81 | MMV676382 | 88.4 | 99 | 122
82 | MMV676383 | 1.2 | 79.3 | 110
83 | MMV676384 | 54.5 | 101 | 109
84 | MMV676386 | 24 | 90.1 | 107
85 | MMV676388 | 87.4 | 101 | 110
86 | MMV676389 | 51.7 | 98.7 | 113
87 | MMV676395 | 2.49 | -0.21 | 111
88 | MMV676398 | 92 | 99.3 | 111

Row | Substance | Survival [1] [%] | Survival [2] [%] | Survival [3] [%]
89 | MMV676401 | 95.8 | 88 | 113
90 | MMV676406 | 67.8 | 105 | 111
91 | MMV676409 | 19.2 | 85.7 | 122
92 | MMV676411 | 16.4 | 98.2 | 101
93 | MMV676412 | 6.6 | 92.8 | 105
94 | MMV676431 | 81.5 | 98.6 | 115
95 | MMV676439 | 91.7 | 34.7 | 114
96 | MMV676442 | 86.8 | 97.1 | 123
97 | MMV676444 | 56.3 | 97.5 | 113
98 | MMV676445 | 30 | 74.2 | 111
99 | MMV676449 | 90.2 | 84.8 | 102
100 | MMV676461 | 78.3 | 104 | 114
101 | MMV676468 | 10.5 | 96.9 | 103
102 | MMV676470 | 90.7 | 100 | 115
103 | MMV676472 | 120 | 92.2 | 115
104 | MMV676474 | 60.1 | 88.6 | 99
105 | MMV676476 | 72.8 | 100 | 108
106 | MMV676477 | 4.54 | 73.1 | 111
107 | MMV676478 | 44.5 | 96.5 | 111
108 | MMV676480 | 106 | 104 | 104
109 | MMV676492 | 83.1 | 97.8 | 101
